Kd, half-life and IC50 data for four compounds are collected here from patent publication US20260294922A1, “Inhibitors of JUN N-Terminal Kinases (JNK1, JNK2, and/or JNK3) and Mitogen-Activated Protein Kinases (MAPK8, MAPK9, and/or MAPK10) and Methods of Using Same” (Baylor College of Medicine, priority 2023, published 2026).

In general, Kd refers to the concentration at which binding is half-saturated. As a reminder, the half-life is how long it takes for the measured level to halve. A low value points to fast loss. The term IC50 denotes the concentration that gives 50% inhibition. High values mean a need for much substance, low ones inhibition by little substance.

One series concerns the target T1, PHKG2 (Homo sapiens, UniProt P15735).
T1 construct: purchased ThermoFisher (SelectScreen, outsourced service)
T1 sequence (P15735 1-406): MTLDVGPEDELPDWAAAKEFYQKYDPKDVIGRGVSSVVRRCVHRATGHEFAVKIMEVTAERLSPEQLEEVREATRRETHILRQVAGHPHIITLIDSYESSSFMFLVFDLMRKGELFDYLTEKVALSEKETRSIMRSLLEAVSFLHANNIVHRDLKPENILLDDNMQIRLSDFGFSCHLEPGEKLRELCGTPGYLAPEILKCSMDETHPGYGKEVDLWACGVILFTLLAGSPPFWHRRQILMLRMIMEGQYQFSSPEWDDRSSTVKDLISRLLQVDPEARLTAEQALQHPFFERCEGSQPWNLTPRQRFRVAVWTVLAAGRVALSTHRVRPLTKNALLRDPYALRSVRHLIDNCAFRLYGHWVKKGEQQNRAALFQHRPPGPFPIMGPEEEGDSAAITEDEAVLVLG
The series can be described thus: ThermoFisher SelectScreen, PHKG2. The format is binding. To be noted: Table 4. As for the experimental part:
(§1) To mitigate violation of the linear initial velocity principle, which is a problem in end-point assays when doing dose-responses, the enzyme concentration was carefully optimized, in a total assay volume of 25 μL. The assay was performed using 10 μM ATP, 0.02% Tween-20, kinase buffer from Cell Signaling (#9802) in white 384-well plates. The kinase reaction was done for 30 or 60 min at 30° C., and detection of leftover ATP was measured according to Promega's protocol. […] Fractional activities were obtained from normalized data. Non-linear regression (GraphPad Prism7) and a modified Morrison equation for tight binding was used to determine apparent Ki values for inhibitors, assuming no particular mode of inhibition. An orthogonal binding assay (LanthaScreen) was outsourced to ThermoFisher Scientific's SelectScreen Services to determine IC50 values.
(§2) One of the earliest compounds to be synthesized with favorable enzymatic activity towards JNK1 and JNK3 was CDD-2346. A KINOMEscan was performed for CDD-2346 to establish whether the selectivity of this chemical scaffold was suitable or required optimization. […] To confirm that the activity against each kinase was a true result and not a false positive, CDD-2346 was evaluated in kinase assays using ThermoFisher SelectScreen platform. The results from these assays are provided herein (Table 4). The important innovative steps described are the optimization of selectivity a) for JNK isoforms; b) for kinases considered “in-pathway”; and c) to avoid kinases considered “out-of-pathway”.

Another series concerns the target T2, MEK4 (Homo sapiens, UniProt P45985).
T2 construct: purchased ThermoFisher (SelectScreen)
T2 sequence (P45985 1-399): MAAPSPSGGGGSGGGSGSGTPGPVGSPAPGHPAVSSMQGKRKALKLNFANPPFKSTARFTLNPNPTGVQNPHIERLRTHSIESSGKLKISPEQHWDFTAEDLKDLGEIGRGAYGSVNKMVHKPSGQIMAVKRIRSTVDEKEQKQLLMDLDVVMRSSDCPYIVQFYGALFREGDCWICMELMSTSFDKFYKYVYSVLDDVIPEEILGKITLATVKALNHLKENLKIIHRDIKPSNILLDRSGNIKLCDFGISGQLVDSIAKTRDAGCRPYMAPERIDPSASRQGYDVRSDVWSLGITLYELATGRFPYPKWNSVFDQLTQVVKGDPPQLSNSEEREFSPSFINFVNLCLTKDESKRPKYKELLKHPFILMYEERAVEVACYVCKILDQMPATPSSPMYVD
The series can be described thus: ThermoFisher SelectScreen, MEK4. In kind it is binding.

A further series deals with T3, CLK2 (Homo sapiens, UniProt P49760).
T3 construct: purchased ThermoFisher (SelectScreen)
Put plainly: ThermoFisher SelectScreen, CLK2. In kind it is binding.

A further series deals with T4, hVPS34 (Homo sapiens, UniProt Q8NEB9).
T4 construct: purchased ThermoFisher (SelectScreen, outsourced service)
Put plainly: ThermoFisher SelectScreen, hVPS34. In kind it is binding. To be noted: Table 4. As for the experimental part:
as §1, §2

Series [1] in a line: In vitro metabolism in mouse liver microsomes. Particulars: mouse, microsomes. As for the experimental part:
The target product profile seeks to deliver JNK inhibitor as a once daily oral administration. To prioritize compounds for further development, in vitro metabolism of several CDD JNK inhibitors were determined to approximate the plasma half-life and the rate of metabolism of the compounds in vivo.

For another series, the target named is T5, MEK5 (Homo sapiens, UniProt Q13163).
T5 construct: purchased ThermoFisher (SelectScreen, outsourced service)
T5 sequence (Q13163 1-448): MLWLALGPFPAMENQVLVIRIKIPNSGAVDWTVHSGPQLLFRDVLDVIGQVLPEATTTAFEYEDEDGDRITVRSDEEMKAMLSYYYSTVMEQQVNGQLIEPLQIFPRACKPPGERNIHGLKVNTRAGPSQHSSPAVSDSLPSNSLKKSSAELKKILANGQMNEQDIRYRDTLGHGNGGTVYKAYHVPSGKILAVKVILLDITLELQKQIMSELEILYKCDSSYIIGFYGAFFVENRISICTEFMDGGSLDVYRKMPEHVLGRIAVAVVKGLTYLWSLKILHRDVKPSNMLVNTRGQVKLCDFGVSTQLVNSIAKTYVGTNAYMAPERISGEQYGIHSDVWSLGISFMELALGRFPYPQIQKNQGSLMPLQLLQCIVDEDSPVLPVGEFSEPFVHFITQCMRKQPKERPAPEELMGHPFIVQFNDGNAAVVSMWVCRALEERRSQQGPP
The series can be described thus: ThermoFisher SelectScreen, MEK5. The format is binding. To be noted: Table 4. The method, then: as §1, §2

Another series concerns the target T6, MYLK (Homo sapiens, UniProt Q15746).
T6 construct: purchased ThermoFisher (SelectScreen, outsourced service)
Put plainly: ThermoFisher SelectScreen, MYLK. Particulars: Table 4. The format is binding. As for the experimental part: as §1, §2

The target of another series is T7, CSNK1G1 (Homo sapiens, UniProt Q9HCP0).
T7 construct: purchased ThermoFisher (SelectScreen)
The series can be described thus: ThermoFisher SelectScreen, CSNK1G1. In kind it is binding. The method, then:
as §1, §2
No activity of CDD-2728 was detected for Atypical, Mutant, or Lipid kinases. To confirm CDD-2728 inhibition results in the KINOMEscan analysis, individual binding assays were performed on the kinases to which CDD-2728 bound using ThermoFisher SelectScreen.

For the next series, the target named is T8, CSNK1E (Homo sapiens, UniProt P49674).
T8 construct: purchased ThermoFisher (SelectScreen)
The series can be described thus: ThermoFisher SelectScreen, CSNK1E. The format is binding.

A further series addresses JNK2 (Homo sapiens, UniProt P45984). The series can be described thus: Promega NanoBRET intracellular target engagement (tracer K10 displacement), JNK2. The format is cell-based.

T8 sequence (P49674 whole entry): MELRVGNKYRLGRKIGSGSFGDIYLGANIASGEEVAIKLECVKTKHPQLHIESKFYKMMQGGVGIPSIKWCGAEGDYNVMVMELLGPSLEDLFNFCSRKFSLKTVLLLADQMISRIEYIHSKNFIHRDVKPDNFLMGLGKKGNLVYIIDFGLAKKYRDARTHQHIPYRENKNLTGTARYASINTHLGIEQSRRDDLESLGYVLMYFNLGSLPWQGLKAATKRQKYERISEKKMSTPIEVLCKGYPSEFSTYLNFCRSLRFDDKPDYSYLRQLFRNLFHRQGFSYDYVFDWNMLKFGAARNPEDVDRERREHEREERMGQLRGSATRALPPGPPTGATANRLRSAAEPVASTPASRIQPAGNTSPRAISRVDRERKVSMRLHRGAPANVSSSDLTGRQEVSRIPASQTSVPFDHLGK
T6 sequence (Q15746 whole entry): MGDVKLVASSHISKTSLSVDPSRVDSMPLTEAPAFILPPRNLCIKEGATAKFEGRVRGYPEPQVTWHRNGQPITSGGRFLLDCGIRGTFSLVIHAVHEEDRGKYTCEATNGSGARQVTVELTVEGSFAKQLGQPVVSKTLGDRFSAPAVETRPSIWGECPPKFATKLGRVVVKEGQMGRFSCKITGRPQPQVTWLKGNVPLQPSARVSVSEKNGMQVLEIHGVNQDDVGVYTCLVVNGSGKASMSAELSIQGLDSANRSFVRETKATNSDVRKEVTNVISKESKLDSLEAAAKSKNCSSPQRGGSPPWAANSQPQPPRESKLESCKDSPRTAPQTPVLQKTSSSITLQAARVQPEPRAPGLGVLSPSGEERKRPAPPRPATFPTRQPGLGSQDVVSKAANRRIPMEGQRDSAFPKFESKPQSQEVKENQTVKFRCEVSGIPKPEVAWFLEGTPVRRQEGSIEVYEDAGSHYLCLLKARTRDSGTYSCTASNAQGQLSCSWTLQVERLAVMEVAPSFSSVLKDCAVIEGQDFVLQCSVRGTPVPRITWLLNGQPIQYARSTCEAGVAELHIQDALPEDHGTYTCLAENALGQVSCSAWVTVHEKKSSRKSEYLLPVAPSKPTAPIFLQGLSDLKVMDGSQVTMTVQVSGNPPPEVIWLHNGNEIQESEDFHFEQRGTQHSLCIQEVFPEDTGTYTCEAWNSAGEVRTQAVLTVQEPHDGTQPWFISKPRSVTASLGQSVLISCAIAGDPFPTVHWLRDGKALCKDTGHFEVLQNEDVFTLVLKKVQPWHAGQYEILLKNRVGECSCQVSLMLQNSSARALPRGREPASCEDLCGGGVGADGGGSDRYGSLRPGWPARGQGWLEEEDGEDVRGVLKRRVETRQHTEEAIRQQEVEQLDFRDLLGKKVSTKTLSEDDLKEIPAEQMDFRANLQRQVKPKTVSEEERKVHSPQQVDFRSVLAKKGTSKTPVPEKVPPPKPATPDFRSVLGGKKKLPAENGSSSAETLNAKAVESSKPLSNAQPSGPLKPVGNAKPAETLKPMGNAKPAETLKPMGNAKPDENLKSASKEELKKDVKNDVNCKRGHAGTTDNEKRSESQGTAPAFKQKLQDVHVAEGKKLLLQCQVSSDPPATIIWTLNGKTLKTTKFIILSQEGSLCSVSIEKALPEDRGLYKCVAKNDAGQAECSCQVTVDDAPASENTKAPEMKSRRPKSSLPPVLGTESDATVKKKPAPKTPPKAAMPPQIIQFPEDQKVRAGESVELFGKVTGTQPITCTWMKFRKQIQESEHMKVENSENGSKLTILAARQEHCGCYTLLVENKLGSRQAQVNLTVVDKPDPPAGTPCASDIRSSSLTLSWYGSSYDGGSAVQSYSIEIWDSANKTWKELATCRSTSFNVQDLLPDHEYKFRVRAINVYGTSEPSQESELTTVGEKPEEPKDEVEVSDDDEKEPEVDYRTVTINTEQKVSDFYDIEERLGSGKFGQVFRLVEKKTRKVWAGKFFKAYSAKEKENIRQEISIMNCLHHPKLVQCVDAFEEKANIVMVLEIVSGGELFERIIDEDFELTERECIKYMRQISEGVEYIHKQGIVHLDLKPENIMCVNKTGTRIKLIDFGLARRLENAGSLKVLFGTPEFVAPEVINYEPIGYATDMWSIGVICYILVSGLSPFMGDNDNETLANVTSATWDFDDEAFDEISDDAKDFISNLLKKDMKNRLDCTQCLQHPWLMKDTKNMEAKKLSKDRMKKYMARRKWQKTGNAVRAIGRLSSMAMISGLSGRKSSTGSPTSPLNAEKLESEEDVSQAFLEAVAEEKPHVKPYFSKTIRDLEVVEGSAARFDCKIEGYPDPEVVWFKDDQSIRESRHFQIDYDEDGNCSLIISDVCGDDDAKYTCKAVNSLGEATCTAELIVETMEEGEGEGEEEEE
T7 sequence (Q9HCP0 whole entry): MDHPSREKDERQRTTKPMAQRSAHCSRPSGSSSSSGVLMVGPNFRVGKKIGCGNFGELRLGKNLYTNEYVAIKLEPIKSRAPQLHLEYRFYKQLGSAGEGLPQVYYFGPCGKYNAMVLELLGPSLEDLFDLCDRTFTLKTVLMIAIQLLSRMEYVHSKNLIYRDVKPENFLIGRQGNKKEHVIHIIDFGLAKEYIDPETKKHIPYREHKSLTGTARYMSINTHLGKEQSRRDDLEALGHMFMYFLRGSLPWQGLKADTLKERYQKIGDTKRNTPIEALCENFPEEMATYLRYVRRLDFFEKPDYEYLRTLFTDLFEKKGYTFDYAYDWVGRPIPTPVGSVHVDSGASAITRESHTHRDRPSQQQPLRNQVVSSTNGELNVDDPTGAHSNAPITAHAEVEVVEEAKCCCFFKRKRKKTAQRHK
T4 sequence (Q8NEB9 whole entry): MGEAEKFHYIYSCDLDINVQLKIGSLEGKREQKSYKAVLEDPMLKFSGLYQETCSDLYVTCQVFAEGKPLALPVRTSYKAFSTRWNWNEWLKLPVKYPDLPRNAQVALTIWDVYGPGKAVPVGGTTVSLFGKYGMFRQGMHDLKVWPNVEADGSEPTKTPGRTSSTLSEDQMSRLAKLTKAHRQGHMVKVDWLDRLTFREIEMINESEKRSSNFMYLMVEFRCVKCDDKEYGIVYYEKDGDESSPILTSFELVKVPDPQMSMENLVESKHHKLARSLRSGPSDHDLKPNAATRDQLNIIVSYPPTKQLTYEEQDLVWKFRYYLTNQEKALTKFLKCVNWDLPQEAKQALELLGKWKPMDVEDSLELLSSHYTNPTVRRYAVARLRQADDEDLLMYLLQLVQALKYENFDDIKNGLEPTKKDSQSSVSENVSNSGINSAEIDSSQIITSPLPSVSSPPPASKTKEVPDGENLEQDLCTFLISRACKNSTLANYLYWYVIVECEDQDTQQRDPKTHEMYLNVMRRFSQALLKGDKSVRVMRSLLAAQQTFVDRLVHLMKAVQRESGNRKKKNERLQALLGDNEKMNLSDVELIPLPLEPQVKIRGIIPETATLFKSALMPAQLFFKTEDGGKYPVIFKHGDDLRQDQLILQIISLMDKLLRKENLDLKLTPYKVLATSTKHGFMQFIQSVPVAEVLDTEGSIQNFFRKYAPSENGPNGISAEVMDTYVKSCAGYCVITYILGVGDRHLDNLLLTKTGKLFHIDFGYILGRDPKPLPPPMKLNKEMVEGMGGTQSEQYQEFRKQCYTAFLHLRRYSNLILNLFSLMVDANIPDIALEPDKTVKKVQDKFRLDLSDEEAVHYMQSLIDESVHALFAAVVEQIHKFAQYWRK
Chain of JNK2 (P45984 whole entry): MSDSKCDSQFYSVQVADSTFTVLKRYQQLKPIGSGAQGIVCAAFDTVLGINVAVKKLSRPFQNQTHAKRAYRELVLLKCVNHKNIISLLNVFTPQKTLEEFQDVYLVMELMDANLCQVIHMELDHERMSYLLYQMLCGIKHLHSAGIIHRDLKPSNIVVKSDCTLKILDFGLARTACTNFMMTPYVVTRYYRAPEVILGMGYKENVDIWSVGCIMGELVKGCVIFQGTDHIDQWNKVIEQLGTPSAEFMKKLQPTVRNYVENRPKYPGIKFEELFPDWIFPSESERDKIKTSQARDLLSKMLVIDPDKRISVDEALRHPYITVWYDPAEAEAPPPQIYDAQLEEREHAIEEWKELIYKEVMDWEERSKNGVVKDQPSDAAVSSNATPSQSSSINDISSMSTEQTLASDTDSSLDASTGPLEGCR
T3 sequence (P49760 whole entry): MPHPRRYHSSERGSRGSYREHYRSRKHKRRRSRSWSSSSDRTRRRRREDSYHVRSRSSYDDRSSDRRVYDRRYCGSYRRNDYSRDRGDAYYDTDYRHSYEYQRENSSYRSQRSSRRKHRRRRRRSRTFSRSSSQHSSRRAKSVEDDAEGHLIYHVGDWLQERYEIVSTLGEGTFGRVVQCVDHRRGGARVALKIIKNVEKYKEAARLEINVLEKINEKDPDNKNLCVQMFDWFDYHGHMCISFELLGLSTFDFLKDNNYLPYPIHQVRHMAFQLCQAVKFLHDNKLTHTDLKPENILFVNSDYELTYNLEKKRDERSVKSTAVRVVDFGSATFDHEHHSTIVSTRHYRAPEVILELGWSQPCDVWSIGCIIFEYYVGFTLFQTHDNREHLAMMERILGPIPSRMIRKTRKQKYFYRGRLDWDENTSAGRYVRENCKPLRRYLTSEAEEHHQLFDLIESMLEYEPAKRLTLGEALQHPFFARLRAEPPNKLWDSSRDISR

As to `CNCc1ccc(NC(=O)c2ccn3ncc(-c4cnc5[nH]ccc5c4)c3c2)cc1` [CDD-2346, N-(4-((methylamino)methyl)phenyl)-3-(1H-pyrrolo[2,3-b]pyridin-5-yl)pyrazolo[1,5-a]pyridine-5-carboxamide], the dissociation constant Kd at PHKG2 came out at 188 nM; on MEK4, 18 nM; at CLK2 it was 34 nM; at hVPS34 it was 109 nM; on MEK5 it was 579 nM; on MYLK, 442 nM. The Kd at CSNK1G1 (Table 4) worked out at 133 nM; at CSNK1E, 48 nM. Further, the half-life in series [1] turned out to be 68.7 min. In addition, the IC50 on JNK2 turned out to be 1700 nM.

With `CN(C)Cc1ccc(NC(=O)c2ccn3ncc(-c4cnc5[nH]ccc5c4)c3c2)cc1` [CDD-2482, N-(4-((dimethylamino)methyl)phenyl)-3-(1H-pyrrolo[2,3-b]pyridin-5-yl)pyrazolo[1,5-a]pyridine-5-carboxamide], the Kd turned out to be 110 nM at PHKG2; 9 nM at MEK4; 17 nM on CLK2; 255 nM on hVPS34; 547 nM at MEK5; 501 nM on MYLK. Also, the dissociation constant (Kd) at CSNK1G1 (Table 4) was found to be 52 nM; at CSNK1E, 29 nM. The half-life in series [1] stood at 16.6 min.

With `CN(C)C(=O)c1cc(NC(=O)c2cc3c(-c4cnc5[nH]ccc5c4)cccc3s2)ccc1O` [CDD-2728, N-(3-(dimethylcarbamoyl)-4-hydroxyphenyl)-4-(1H-pyrrolo[2,3-b]pyridin-5-yl)benzo[b]thiophene-2-carboxamide], the dissociation constant Kd at MEK4 is 18 nM; at CLK2, 240 nM; at CSNK1G1 (Table 5), 4400 nM; at CSNK1E, 1070 nM. For the same compound, the half-life in series [1] was determined as 85.2 min. The same compound showed an IC50 on JNK2 of 570 nM.

`O=C(Nc1ccc(F)cc1)c1ccn2ncc(-c3cnc4[nH]ccc4c3)c2c1` [CDD-2486, N-(4-fluorophenyl)-3-(1H-pyrrolo[2,3-b]pyridin-5-yl)pyrazolo[1,5-a]pyridine-5-carboxamide]: the Kd at PHKG2 came to 1950 nM; on MEK4, 26.2 nM; at CLK2, 130 nM; at hVPS34, 1140 nM; at MEK5, 4040 nM; at MYLK, 942 nM. The dissociation constant Kd at CSNK1G1 (Table 4) turned out to be 14400 nM; at CSNK1E, 235 nM. Besides, the half-life in series [1] amounted to 10.8 min. Further, the half-inhibitory concentration (IC50) at JNK2 turned out to be 442 nM.
